Consider 14 compounds from ChEMBL document CHEMBL4368895, “Incorporation of an intramolecular hydrogen bonding motif in the side chain of antimalarial benzimidazoles” (Medchemcomm, 2019).

Data set [1] can be described thus: Selectivity index, ratio of IC50 for cytotoxicity in CHO cells to IC50 for antiplasmodium activity against chloroquine-sensitive Plasmodium falciparum NF54 asexual blood stage forms infected in human erythrocytes. The settings on record: Chinese hamster, read-out: Ratio IC50. The format is toxicity, cell-based.
Data set [2] in a line: Kinetic solubility in pH 7.4 PBS at 0.125 to 8 mM incubated for 2 hrs by turbidimetric kinetic solubility assay. The settings on record: read-out: Kinetic_solubility. The format is physicochemical.
Data set [3] relates to CHO. Kind of data set: Cytotoxicity in CHO cells assessed as reduction in cell viability by MTT assay. The format is cell-based. Conditions: Cricetulus griseus. (Tetrazolium assays rely on reduction of a dye to a coloured formazan, in cell work by metabolically active cells.)
In data set [4] the test system is Plasmodium falciparum. Kind of data set: Antiplasmodium activity against multidrug resistant Plasmodium falciparum K1 asexual blood stage forms infected in human erythrocytes assessed as reduction in [3H]-hypoxanthine incorporation incubated for 48 hrs by liquid scintillation counting method. Type of data set: functional, organism-based.
Data set [5] relates to Plasmodium falciparum. As to the kind of experiment: Antiplasmodium activity against chloroquine-sensitive Plasmodium falciparum NF54 asexual blood stage forms infected in human erythrocytes assessed as reduction in [3H]-hypoxanthine incorporation incubated for 48 hrs by liquid scintillation counting method. The format is functional, organism-based.
In data set [6] the test system is Hemozoin. As to the kind of experiment: Inhibition of beta-hematin formation assessed as reduction in hemozoin formation incubated for 5 hrs by NP40 detergent-based assay.

≈ marks a conversion by molar mass, not a printed value.

On to `CCN(CCNc1nc2ccccc2[nH]1)Cc1cc(OC)ccc1O`, for which, in data set [1], the selectivity ratio was determined as 156. Besides, the solubility kinetic at 2 h in data set [2] worked out at 160 µM (≈ 54.5 µg/mL). Also, the IC50 (usually the point on the concentration scale where inhibition reaches its midpoint) in data set [3] worked out at 50 µM; in data set [4], 3.04 µM; in data set [5], 0.32 µM; in data set [6], 489 µM.

For `CCN(CCNc1nc2ccccc2[nH]1)Cc1cc(C#N)ccc1O`, in data set [1], the selectivity ratio was found to be 52. For the same compound, the solubility kinetic at 2 h in data set [2] turned out to be 160 µM (≈ 53.7 µg/mL). Also, the IC50 in data set [3] was 50 µM; in data set [4] it was above 10 µM; in data set [5] it was 0.968 µM; in data set [6] it was 250 µM.

For the compound `CCN(CCNc1nc2ccccc2[nH]1)Cc1cc(C)ccc1O`, the selectivity ratio in data set [1] is 60. For the same compound, the solubility kinetic at 2 h in data set [2] was above 200 µM. For the same compound, the 50% inhibitory concentration (IC50) turned out to be 24.5 µM in data set [3], 2.43 µM in data set [4], 0.408 µM in data set [5] and 4220 µM in data set [6].

In the case of `CCN(CCNc1nc2ccccc2[nH]1)Cc1cccc(F)c1O`, the selectivity ratio in data set [1] stood at 167. The solubility kinetic at 2 h in data set [2] amounted to 160 µM (≈ 52.5 µg/mL). The IC50 in data set [3] stood at 50 µM; in data set [4] it was 1.49 µM; in data set [5], 0.299 µM; in data set [6], 161 µM.

In the case of `CCN(CCNc1nc2ccccc2[nH]1)Cc1cc(Cl)ccc1O`, the selectivity ratio in data set [1] was determined as 228. In addition, the solubility kinetic at 2 h in data set [2] worked out at 160 µM (≈ 55.2 µg/mL). Moreover, the IC50 was 25.1 µM in data set [3], 0.762 µM in data set [4], 0.11 µM in data set [5] and 125 µM in data set [6].

Turning to `CCN(CCNc1nc2ccccc2[nH]1)Cc1cc(Cl)cc(Cl)c1O`, the selectivity ratio in data set [1] came out at 125. Further, the solubility kinetic at 2 h in data set [2] was 160 µM (≈ 60.7 µg/mL). Further, the IC50 in data set [3] worked out at 50 µM; in data set [4], 1.4 µM; in data set [5] it was 0.4 µM; in data set [6], 30 µM.

As to `CCN(CCNc1nc2ccccc2[nH]1)Cc1ccc(Cl)cc1O`, the selectivity ratio in data set [1] stood at 273. For the same compound, the solubility kinetic at 2 h in data set [2] stood at 160 µM (≈ 55.2 µg/mL). Also, the IC50 in data set [3] was 21.6 µM; in data set [4], 0.335 µM; in data set [5], 0.079 µM; in data set [6], 32 µM.

Regarding `CCN(CCNc1nc2ccccc2[nH]1)Cc1cc(F)cc(F)c1O`, the selectivity ratio in data set [1] stood at 225. For the same compound, the solubility kinetic at 2 h in data set [2] amounted to 140 µM (≈ 48.5 µg/mL). In addition, the IC50 in data set [3] was found to be 50 µM; in data set [4], 0.952 µM; in data set [5], 0.222 µM; in data set [6] it was 68 µM.

Consider `CCN(CCNc1nc2ccccc2[nH]1)Cc1ccccc1O`, for which the selectivity ratio in data set [1] was 105. The solubility kinetic at 2 h in data set [2] was above 200 µM. In addition, the IC50 in data set [3] was 50 µM; in data set [4], 2.66 µM; in data set [5], 0.474 µM; in data set [6], 452 µM.

On to `CCN(CCNc1nc2ccccc2[nH]1)Cc1cccc(Cl)c1O`, for which the selectivity ratio in data set [1] was 96. In data set [2], the solubility kinetic at 2 h amounted to 160 µM (≈ 55.2 µg/mL). Moreover, the IC50 in data set [3] amounted to 50 µM; in data set [4], 1.25 µM; in data set [5], 0.521 µM; in data set [6], 130 µM.

For `CCN(CCNc1nc2ccccc2[nH]1)Cc1cccnc1O`, the solubility kinetic at 2 h in data set [2] is above 200 µM. Further, the IC50 in data set [3] is 50 µM; in data set [4], above 10 µM; in data set [5], above 10 µM.

Take `CCN(CCNc1nc2ccccc2[nH]1)Cc1ccccc1`: in data set [2], the solubility kinetic at 2 h came out at 140 µM (≈ 41.2 µg/mL). The IC50 in data set [4] came to 1.88 µM; in data set [5] it was 3.6 µM.

For `C[C@H]1[C@H](OC(=O)CCC(=O)O)O[C@@H]2O[C@@]3(C)CC[C@H]4[C@H](C)CC[C@@H]1[C@@]24OO3` [ARTESUNATE], in data set [5], the IC50 was determined as 0.007 µM.

On to `CC[C@H]1CN2CCc3cc(OC)c(OC)cc3[C@@H]2C[C@@H]1C[C@H]1NCCc2cc(OC)c(OC)cc21` [EMETINE], for which the IC50 in data set [3] turned out to be 0.059 µM.
